Experimental data from patent publication US20240190880A1 (THE REGENTS OF THE UNIVERSITY OF MICHIGAN, priority 2021, published 2024).

target: T1, ER (Homo sapiens, UniProt P03372); assay: ER degradation activity, in-cell western blot analysis in T47D cells; assay type: cell-based; settings: 16 hours, Table A does not say which cell line (T47D or MCF7), read-out: Potency (DC50)
T1 construct: host or cells: T47D and MCF7 human breast cancer cells
T1 sequence (P03372 1-595): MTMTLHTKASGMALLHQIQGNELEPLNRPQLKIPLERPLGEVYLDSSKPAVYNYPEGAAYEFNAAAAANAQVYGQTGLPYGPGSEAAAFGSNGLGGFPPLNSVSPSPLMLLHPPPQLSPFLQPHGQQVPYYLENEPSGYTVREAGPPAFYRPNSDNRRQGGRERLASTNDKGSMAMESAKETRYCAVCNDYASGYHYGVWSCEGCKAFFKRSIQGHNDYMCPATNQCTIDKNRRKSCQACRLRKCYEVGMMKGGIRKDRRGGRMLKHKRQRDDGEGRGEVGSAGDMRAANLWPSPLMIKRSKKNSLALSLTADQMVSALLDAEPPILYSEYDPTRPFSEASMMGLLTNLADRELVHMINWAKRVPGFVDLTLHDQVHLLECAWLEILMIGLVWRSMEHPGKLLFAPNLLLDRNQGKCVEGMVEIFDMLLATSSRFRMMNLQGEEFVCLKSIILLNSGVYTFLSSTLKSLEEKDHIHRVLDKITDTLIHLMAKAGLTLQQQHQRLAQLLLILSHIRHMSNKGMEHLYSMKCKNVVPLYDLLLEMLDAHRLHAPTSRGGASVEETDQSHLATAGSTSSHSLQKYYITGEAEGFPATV
Method in brief: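 T47D cells grown in DMEM with 10% FBS were treated with compounds for 16 hours at 0.5% DMSO final. ER was detected by in-cell western using 680/800 near-infrared secondary antibodies. Residual ER is given as percent of untreated and DMSO-treated wells set to 100%.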

For `O=C1CCC(N2C(=O)c3cc4c(cc3C2=O)CN(C(=O)[C@H]2CC[C@H](N3CC(Oc5ccc([C@H]6c7ccc(O)cc7CC[C@H]6c6ccccc6)cc5)C3)CC2)C4)C(=O)N1` (stereo partly drawn) [E 388, 2-(2,6-dioxopiperidin-3-yl)-6-((1S,4r)-4-(3-(4-((1S,2R)-6-hydroxy-2-phenyl-1,2,3,4-tetrahydronaphthalen-1-yl)phenoxy)azetidin-1-yl)cyclohexane-1-carbonyl)-6,7-dihydropyrrolo[3,4-f]isoindole-1,3(2H,5H)-dione], which DC50 is on record?
The DC50 was 10 to 100 nM.

How did the DC50 turn out when `O=C1CCC(N2C(=O)c3cc4c(cc3C2=O)CN(C(=O)[C@H]2CC[C@@H](N3CC(Oc5ccc([C@H]6c7ccc(O)cc7CC[C@H]6c6ccccc6)cc5)C3)CC2)C4)C(=O)N1` (stereo partly drawn) [E 389, 2-(2,6-dioxopiperidin-3-yl)-6-((1R,4s)-4-(3-(4-((1S,2R)-6-hydroxy-2-phenyl-1,2,3,4-tetrahydronaphthalen-1-yl)phenoxy)azetidin-1-yl)cyclohexane-1-carbonyl)-6,7-dihydropyrrolo[3,4-f]isoindole-1,3(2H,5H)-dione] was run?
Its DC50 is > 100 nM.

How did the DC50 turn out when `O=C1CCC(N2C(=O)c3cc4c(cc3C2=O)CN(CC(=O)N2CCC3(CC2)CN(c2ccc([C@@H]5c6ccc(O)cc6CC[C@@H]5c5ccc(F)cc5Cl)cc2)C3)C4)C(=O)N1` (mixture of isomers) [E 11, rac-6-(2-(2-(4-((1R,2S)-2-(2-chloro-4-fluorophenyl)-6-hydroxy-1,2,3,4-tetrahydronaphthalen-1-yl)phenyl)-2,7-diazaspiro[3.5]nonan-7-yl)-2-oxoethyl)-2-(2,6-dioxopiperidin-3-yl)-6,7-dihydropyrrolo[3,4-f]isoindole-1,3(2H,5H)-dione] was run?
The DC50 was 10 to 100 nM.

`C[C@H]1Cc2c([nH]c3ccccc23)[C@H](c2c(F)cc(N3CC4(CCN(C(=O)CN5Cc6cc7c(cc6C5)C(=O)N(C5CCC(=O)NC5=O)C7=O)CC4)C3)cc2F)N1CC(F)F` (stereo in doubt) [E 84, 6-(2-(2-(4-((1S,3S)-2-(2,2-difluoroethyl)-3-methyl-2,3,4,9-tetrahydro-1H-pyrido[3,4-b]indol-1-yl)-3,5-difluorophenyl)-2,7-diazaspiro[3.5]nonan-7-yl)-2-oxoethyl)-2-(2,6-dioxopiperidin-3-yl)-6,7-dihydropyrrolo[3,4-f]isoindole-1,3(2H,5H)-dione] was tested. Which DC50 did it give?
The DC50 was < 10 nM.

With `C[C@@H]1Cc2cc(O)ccc2[C@@H](c2c(F)cc(N3CCC4(CCN(CC(=O)N5Cc6cc7c(cc6C5)C(=O)N(C5CCC(=O)NC5=O)C7)C4)C3)cc2F)N1CC(C)(F)F` (stereo partly drawn) [E 32, 3-(6-(2-(7-(4-((1S,3R)-2-(2,2-difluoropropyl)-6-hydroxy-3-methyl-1,2,3,4-tetrahydroisoquinolin-1-yl)-3,5-difluorophenyl)-2,7-diazaspiro[4.4]nonan-2-yl)acetyl)-1-oxo-3,5,6,7-tetrahydropyrrolo[3,4-f]isoindol-2(1H)-yl)piperidine-2,6-dione] as the molecule, how does the DC50 read?
The DC50 was > 100 nM.

`O=C1CCC(N2Cc3cc4c(cc3C2=O)CN(C(=O)[C@H]2CC[C@H](N3CC(Nc5ccc([C@@H]6c7ccc(O)cc7CC[C@@H]6c6ccccc6)cc5)C3)CC2)C4)C(=O)N1` (single isomer, unassigned) [E 360] was tested. Which DC50 did it give?
Its DC50 is < 10 nM.

`O=C1CCC(N2C(=O)c3cc4c(cc3C2=O)CN([C@H]2CC[C@@H](C(=O)N3CC(Nc5ccc([C@H]6c7ccc(O)cc7CC[C@H]6c6ccccc6)cc5)C3)CC2)C4)C(=O)N1` (stereo partly drawn) [E 386, 2-(2,6-dioxopiperidin-3-yl)-6-((1R,4s)-4-(3-((4-((1S,2R)-6-hydroxy-2-phenyl-1,2,3,4-tetrahydronaphthalen-1-yl)phenyl)amino)azetidine-1-carbonyl)cyclohexyl)-6,7-dihydropyrrolo[3,4-f]isoindole-1,3(2H,5H)-dione] was tested. Which DC50 did it give?
Its DC50 is > 100 nM.

Which DC50 does the source give for `C[C@@H]1Cc2c([nH]c3ccccc23)[C@@H](c2c(F)cc(C3CCC(C(=O)N4CCC(N5Cc6cc7c(cc6C5)C(=O)N(C5CCC(=O)NC5=O)C7=O)CC4)CC3)cc2F)N1CC(F)F` (stereo partly drawn) [E246, 6-(1-(4-(4-((1R,3R)-2-(2,2-difluoroethyl)-3-methyl-2,3,4,9-tetrahydro-1H-pyrido[3,4-b]indol-1-yl)-3,5-difluorophenyl)cyclohexane-1-carbonyl)piperidin-4-yl)-2-(2,6-dioxopiperidin-3-yl)-6,7-dihydropyrrolo[3,4-f]isoindole-1,3(2H,5H)-dione] here?
Its DC50 is < 10 nM.

With `O=C1CCC(N2C(=O)c3cc4c(cc3C2=O)CN(C(=O)CN2CCC3(CC2)CCN(c2ccc([C@@H]5c6ccc(B(O)O)cc6CC[C@@H]5c5ccccc5)cc2)CC3)C4)C(=O)N1` (mixture of isomers) [E 181, Rac-((5R,6S)-5-(4-(9-(2-(6-(2,6-dioxopiperidin-3-yl)-5,7-dioxo-3,5,6,7-tetrahydropyrrolo[3,4-f]isoindol-2(1H)-yl)-2-oxoethyl)-3,9-diazaspiro[5.5]undecan-3-yl)phenyl)-6-phenyl-5,6,7,8-tetrahydronaphthalen-2-yl)boronic acid] as the molecule, how does the DC50 read?
The DC50 was > 100 nM.

How did the DC50 turn out when `C[C@@H]1Cc2c([nH]c3ccccc23)[C@@H](c2ccc(C3CCC(C(=O)N4CCC(N5Cc6cc7c(cc6C5)C(=O)N(C5CCC(=O)NC5=O)C7=O)CC4)CC3)cc2F)N1CC(F)F` (stereo partly drawn) [E 312, 6-(1-(4-(4-((1R,3R)-2-(2,2-difluoroethyl)-3-methyl-2,3,4,9-tetrahydro-1H-pyrido[3,4-b]indol-1-yl)-3-fluorophenyl)cyclohexane-1-carbonyl)piperidin-4-yl)-2-(2,6-dioxopiperidin-3-yl)-6,7-dihydropyrrolo[3,4-f]isoindole-1,3(2H,5H)-dione] was run?
Its DC50 is 10 to 100 nM.

For `O=C1CCC(N2C(=O)c3cc4c(cc3C2=O)CN(CC2CCN(c3ccc([C@@H]5c6ccc(O)cc6CC[C@@H]5c5ccccc5)cc3)CC2)C4)C(=O)N1` (mixture of isomers) [E 2, Rac-2-(2,6-dioxopiperidin-3-yl)-6-((1-(4-((1R,2S)-6-hydroxy-2-phenyl-1,2,3,4-tetrahydronaphthalen-1-yl)phenyl)piperidin-4-yl)methyl)-6,7-dihydropyrrolo[3,4-f]isoindole-1,3(2H,5H)-dione], which DC50 is on record?
Its DC50 is 10 to 100 nM.

For `O=C1CCC(N2C(=O)c3cc4c(cc3C2=O)CN(CC2(F)CCN(C(=O)C3CN(c5ccc([C@@H]6c7ccc(O)cc7CC[C@@H]6c6ccccc6)cc5)C3)CC2)C4)C(=O)N1` (stereo partly drawn) [E 199, 2-(2,6-dioxopiperidin-3-yl)-6-((4-fluoro-1-(1-(4-((1R,2S)-6-hydroxy-2-phenyl-1,2,3,4-tetrahydronaphthalen-1-yl)phenyl)azetidine-3-carbonyl)piperidin-4-yl)methyl)-6,7-dihydropyrrolo[3,4-f]isoindole-1,3(2H,5H)-dione], which DC50 is on record?
Its DC50 is > 100 nM.

same assay, conditions: compounds 16 hours, Table A does not say whether T47D or MCF7, read-out: Potency (DC50)

`O=C1CCC(N2Cc3cc4c(cc3C2=O)C(=O)N(CC2CN(CC3CCN(c5ccc([C@@H]6c7ccc(O)cc7CC[C@@H]6c6ccccc6)cc5)CC3)C2)C4)C(=O)N1` (stereo partly drawn) [E 508, 2-(2,6-dioxopiperidin-3-yl)-6-((1-((1-(4-((1R,2S)-6-hydroxy-2-phenyl-1,2,3,4-tetrahydronaphthalen-1-yl)phenyl)piperidin-4-yl)methyl)azetidin-3-yl)methyl)-2,3,5,6-tetrahydropyrrolo[3,4-f]isoindole-1,7-dione] was tested. Which DC50 did it give?
Its DC50 is > 100 nM.

`COc1cc(C2CCC(C(=O)N3CCC(N4Cc5cc6c(cc5C4)C(=O)N(C4CCC(=O)NC4=O)C6=O)CC3)CC2)cnc1[C@@H]1c2[nH]c3ccccc3c2C[C@@H](C)N1CC(F)F` (stereo partly drawn) [E 405, 6-(1-(4-(6-((1S,3R)-2-(2,2-difluoroethyl)-3-methyl-2,3,4,9-tetrahydro-1H-pyrido[3,4-b]indol-1-yl)-5-methoxypyridin-3-yl)cyclohexane-1-carbonyl)piperidin-4-yl)-2-(2,6-dioxopiperidin-3-yl)-6,7-dihydropyrrolo[3,4-f]isoindole-1,3(2H,5H)-dione] was tested. Which DC50 did it give?
Its DC50 is > 100 nM.

For `COc1cc([C@H]2CC[C@@H](C(=O)N3CCC(N4Cc5cc6c(cc5C4)C(=O)N(C4CCC(=O)NC4=O)C6=O)CC3)CC2)ccc1[C@@H]1c2[nH]c3ccccc3c2C[C@@H](C)N1CC(F)F` (stereo partly drawn) [E 404, 6-(1-((1S,4s)-4-(4-((1R,3R)-2-(2,2-difluoroethyl)-3-methyl-2,3,4,9-tetrahydro-1H-pyrido[3,4-b]indol-1-yl)-3-methoxyphenyl)cyclohexane-1-carbonyl)piperidin-4-yl)-2-(2,6-dioxopiperidin-3-yl)-6,7-dihydropyrrolo[3,4-f]isoindole-1,3(2H,5H)-dione], which DC50 is on record?
Its DC50 is > 100 nM.

For `C[C@@H]1Cc2cc(O)ccc2[C@@H](c2ccc(C(=O)N3CCC4(CCC(CN5Cc6cc7c(cc6C5)C(=O)N(C5CCC(=O)NC5=O)C7=O)CC4)CC3)cc2)N1CC(F)F` (stereo partly drawn) [E 454, 6-((3-(4-((1R,3R)-2-(2,2-difluoroethyl)-6-hydroxy-3-methyl-1,2,3,4-tetrahydroisoquinolin-1-yl)benzoyl)-3-azaspiro[5.5]undecan-9-yl)methyl)-2-(2,6-dioxopiperidin-3-yl)-6,7-dihydropyrrolo[3,4-f]isoindole-1,3(2H,5H)-dione], which DC50 is on record?
Its DC50 is > 100 nM.

With `O=C1CCC(N2C(=O)c3cc4c(cc3C2=O)CC2(C4)CN(C(=O)C3CCN(c4ccc([C@@H]5c6ccc(O)cc6CC[C@@H]5c5ccccc5)cc4)CC3)C2)C(=O)N1` (stereo partly drawn) [E 501, 2′-(2,6-dioxopiperidin-3-yl)-1-(1-(4-((1R,2S)-6-hydroxy-2-phenyl-1,2,3,4-tetrahydronaphthalen-1-yl)phenyl)piperidine-4-carbonyl)-5′,7′-dihydro-1′H-spiro[azetidine-3,6′-cyclopenta[f]isoindole]-1′,3′(2′H)-dione] as the molecule, how does the DC50 read?
Its DC50 is > 100 nM.
